Reference: publication PMC10221320
Positions of bridges follow the written chain, without caps; N, C: chain ends. No end group written: not given here.

How the values were obtained:
Format in all cases: in vivo, mouse
CD-1 mice [1] = test: Carrageenan-induced paw edema
Description: (§1) The animal studies were performed under the European Commission’s legislation (Directives 86/609/EEC, 2010/63/EU), the National Standard of the Russian Federation “Good Laboratory Practice” (GOST P 53434-2009, Moscow, Russia), and Committee on Ethics of Laboratory Animal Handling № 05/21, 20 September 2021 and 08/21, 30 December 2021 protocols (PIBOC FEB RAS). Adult female CD-1 mice weighing 25 ± 2 g were subjected to a 12 h light–dark cycle at room temperature and with ad libitum access to food and water. There were seven or eight individuals in each group.
Three groups of animals were treated with peptides at doses of 0.01, 0.1 and 1 mg/kg (intravenously) 30 min before the induction of inflammation. The control animal group received an identical volume of saline. The positive control group received diclofenac (Hemofarm A.D., Vršac, Serbia) at a dose of 1 mg/kg. The edema was induced by a 20 µL injection of 1.5% solution of λ-carrageenan (Sigma Aldrich, St. Louis, MO, USA) in the hind paw pad. The resulting edema was measured after 1, 2, 4 and 24 h using a plethysmometer (Ugo Basile, Gemonio (VA), Italy). The anti-inflammatory threshold was estimated as a decrease in the paw volume and volume growth index (%), calculated using the formula: Volume Growth Index (%) = [(VC − Vi)/Vi] × 100, (1), where VC is the volume of the paw after the introduction of carrageenan and Vi is the volume of the paw before the introduction of carrageenan.

CD-1 mice [2] = test: Elevated plus maze test; conditions: for N (h-d), number of hanging-down reactions / N (racks), vertical activity / N (sap), number of stretch-attend postures / N. entries, closed arms / N. entries, open arms / S (act), distance traveled during activity / S, distance traveled / T (act), activity time / T (e.c.z.), time of exit from the central zone / T (pass), passivity time / V, average travel speed / V(act), average movement speed during activity / N. entries, central area / T., time spent in closed arms / T., time spent in central area / T., time spent in open arms: mean ± SD
Description: as §1
The anti-anxiety activity of the peptides was studied using the elevated plus maze (OpenScience, Krasnogorsk, Russia) test, a cruciform arena raised 50 cm above the floor, where the central platform and two arms are open and lightened, and two arms are closed with walls. Three groups of animals were treated with peptides at doses of 0.01, 0.1 and 1 mg/kg (intravenously) 30 min before testing. The control group was injected with an identical volume (50 µL) of sterile saline. Animals were placed in the center of the lightened arena and the recording lasted 5 min. Using the software “Minotaur” (LLC “Neurobiotics”, Zelenograd, Russia), 12 parameters were estimated: time (T) of activity(act); passivity (pass); spent in closed, open arms, and on the central area; exit from the central zone (e.c.z.); average travel speed (V, m/s); average movement speed during activity (V(act)); distance traveled (S, m); distance traveled during activity (S (act)); a number (N) of entries into open, closed arms, and exits to the central area (entries); vertical activity (racks); and stretch–attend posture when the animal stretches to its full length mainly using the forepaws (sap).

CD-1 mice [3] = test: Nociceptive reaction to direct hind paw pad injection; conditions: 1 mg/kg in the hind paw pad; 15 min
Description: as §1
For a direct Hmg 1b-4 injection (to eliminate the nociceptive reaction of potentiator of ASIC3 channels), it was dissolved in saline and administered at a dose of 1 mg/kg in the hind paw pad. The control group was injected with an identical volume (20 µL) of saline. The animals were placed individually, and a nociceptive reaction was registered for 15 min.

[4] = 0.01 mg/kg i.v. 30 min before testing, n = 7–8
[5] = 0.1 mg/kg i.v. 30 min before testing, n = 7–8
[6] = 1 mg/kg i.v. 30 min before testing, n = 7–8

GTPCDCYGYTGVYWFMLSRCPSGYGYNLSCHYFMGICCVKR (disulfide 4-37, 6-30, 20-38 (inferred)) [Hmg 1b-4]
reduction of volume of paw edema vs control (CD-1 mice [1]; 0.01 mg/kg i.v., only after 24 h): 1.5 times
paw volume relative to original values (CD-1 mice [1]; 0.1 mg/kg i.v., 24 h): reduced the volume of the paw almost to the original values
reduction of paw edema (CD-1 mice [1]; 0.1 mg/kg i.v., after 24 h): ~4 times
reduction of paw edema (CD-1 mice [1]; 1 mg/kg i.v., after 24 h): approximately 2 times
anti-inflammatory effect (CD-1 mice [1]; 0.1 and 1 mg/kg i.v., after 2, 4 and 24 h): statistically significant anti-inflammatory effect
effect compared with diclofenac (CD-1 mice [1]; 1 and 0.1 mg/kg i.v. at 24 h): exceeded the effect of diclofenac
reduction of paw edema (CD-1 mice [1]; 1 and 0.1 mg/kg i.v., after 4 h): 1.5 times
paw volume and growth index of edema (CD-1 mice [1]; i.v., at 1 and 2 h): decreased slightly
N (h-d), number of hanging-down reactions (CD-1 mice [2]; [4]): 19 ± 6.6
N (racks), vertical activity (CD-1 mice [2]; [4]): 34 ± 14.3
N (sap), number of stretch-attend postures (CD-1 mice [2]; [4]): 15 ± 2.3
N. entries, closed arms (CD-1 mice [2]; [4]): 18 ± 4.8
N. entries, open arms (CD-1 mice [2]; [4]): 15 ± 3.3
S (act), distance traveled during activity (CD-1 mice [2]; [4]): 42.6 ± 8.0 m
S, distance traveled (CD-1 mice [2]; [4]): 44.3 ± 8.3 m
T (act), activity time (CD-1 mice [2]; [4]): 161.7 ± 10.6 s
T (e.c.z.), time of exit from the central zone (CD-1 mice [2]; [4]): 3 ± 1.5 s
T (pass), passivity time (CD-1 mice [2]; [4]): 137.7 ± 11.2 s
V, average travel speed (CD-1 mice [2]; [4]): 0.15 ± 0.03 m/s
V(act), average movement speed during activity (CD-1 mice [2]; 0.01 mg/kg i.v. 30 min before testing, n = 7–8 (SD on later line: Hmg 1b-2 0.02, Hmg 1b-4 0.02)): 0.26 m/s
N. entries, central area (CD-1 mice [2]; 0.01 mg/kg i.v. 30 min before testing, n = 7–8 (SD on later line: Hmg 1b-2 11.3)): 36±9.4
T., time spent in closed arms (CD-1 mice [2]; 0.01 mg/kg i.v. 30 min before testing, n = 7–8 (SD on later line: Hmg 1b-2 35.7, Hmg 1b-4 18.7)): 180.1 s
N (h-d), number of hanging-down reactions (CD-1 mice [2]; [5]): 20 ± 8.3
N (racks), vertical activity (CD-1 mice [2]; [5]): 41 ± 4.8
N (sap), number of stretch-attend postures (CD-1 mice [2]; [5]): 17 ± 3.6
N. entries, central area (CD-1 mice [2]; [5]): 38 ± 8.4
N. entries, closed arms (CD-1 mice [2]; [5]): 20 ± 6.6
N. entries, open arms (CD-1 mice [2]; [5]): 22 ± 3.5
S (act), distance traveled during activity (CD-1 mice [2]; [5]): 45.1 ± 6.1 m
S, distance traveled (CD-1 mice [2]; [5]): 46.8 ± 6.1 m
T (act), activity time (CD-1 mice [2]; [5]): 170.8 ± 16.1 s
T (e.c.z.), time of exit from the central zone (CD-1 mice [2]; [5]): 8 ± 3.6 s
T., time spent in central area (CD-1 mice [2]; [5]): 78.7 ± 15.3 s
T., time spent in closed arms (CD-1 mice [2]; [5]): 169 ± 30.2 s
T., time spent in open arms (CD-1 mice [2]; [5]): 84.3 ± 28.7 s
V, average travel speed (CD-1 mice [2]; [5]): 0.14 ± 0.02 m/s
V(act), average movement speed during activity (CD-1 mice [2]; 0.1 mg/kg i.v. 30 min before testing, n = 7–8 (SD on later line: Hmg 1b-2 0.01, Hmg 1b-4 0.03)): 0.27 m/s
T (pass), passivity time (CD-1 mice [2]; 0.1 mg/kg i.v. 30 min before testing, n = 7–8 (SD on later line: Hmg 1b-2 19.8)): 128 ± 15.7 s
N (h-d), number of hanging-down reactions (CD-1 mice [2]; [6]): 18 ± 5.2
N (racks), vertical activity (CD-1 mice [2]; [6]): 45 ± 8.4
N (sap), number of stretch-attend postures (CD-1 mice [2]; [6]): 14 ± 1.8
N. entries, central area (CD-1 mice [2]; [6]): 29 ± 3.4
N. entries, closed arms (CD-1 mice [2]; [6]): 19 ± 3.3
N. entries, open arms (CD-1 mice [2]; [6]): 20 ± 2.5
S (act), distance traveled during activity (CD-1 mice [2]; [6]): 41.0 ± 7.5 m
S, distance traveled (CD-1 mice [2]; [6]): 43.1 ± 7.1 m
T (act), activity time (CD-1 mice [2]; [6]): 174 ± 17.9 s
T (e.c.z.), time of exit from the central zone (CD-1 mice [2]; [6]): 8 ± 6.5 s
T., time spent in central area (CD-1 mice [2]; [6]): 73.8 ± 14.6 s
T., time spent in open arms (CD-1 mice [2]; [6]): 89.6 ± 18.5 s
V, average travel speed (CD-1 mice [2]; [6]): 0.14 ± 0.03 m/s
V(act), average movement speed during activity (CD-1 mice [2]; 1 mg/kg i.v. 30 min before testing, n = 7–8 (SD on later line: Hmg 1b-2 0.02, Hmg 1b-4 0.04)): 0.25 m/s
T (pass), passivity time (CD-1 mice [2]; 1 mg/kg i.v. 30 min before testing, n = 7–8 (SD on later line: Hmg 1b-2 21.9, Hmg 1b-4 17.7)): 125.7 s
T., time spent in closed arms (CD-1 mice [2]; 1 mg/kg i.v. 30 min before testing, n = 7–8 (SD on later line: Hmg 1b-2 32.7, Hmg 1b-4 17.2)): 160.2 s
activity and immobility time, travelled distance and mean speed (CD-1 mice [2]; i.v.): approximately the same in all groups
anxiolytic effect (CD-1 mice [2]; i.v.): exhibit an anxiolytic effect
number of hangings from open sleeves (CD-1 mice [2]; i.v.): increase in the number of hangings from open sleeves
rears number (CD-1 mice [2]; i.v.): increase
close area (closed arms) preference, share of time (CD-1 mice [2]; i.v., control group 63%): 50%
nociceptive reaction (CD-1 mice [3]): did not induce a nociceptive reaction
